Consider 40 compounds from patent publication US9657014B2, “Substituted 1,6-naphthyridines” (Hoffmann-La Roche Inc., priority 2012, dated 2017).

For the first test, the system named is human embryonic stem cell derived neural stem cells (NSCs). Put plainly: Neural stem cell proliferation assay (neurogenesis assay). Type of test: cell-based. The settings on record: Homo sapiens, Neural stem cell, 96 h; Table 1, novel compounds; concentration at which 150% activity of control (100%) is reached; ATP levels (CellTiterGlo) after 4 days incubation. An outline of the steps:
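NSCs derived from human ES cells by dual SMAD inhibition, seeded on polyornithin/laminin, dosed 4 h later (11 points, 8 μM to 8 nM). After 4 days at 37° C, ATP luminescence read; response = compound/medium control ×100, EC150 = concentration giving 150% of control.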
(In general: Cellular ATP, detected with luciferase, serves as a proxy for viable cell number.)
Compound `O=C(NCc1cccnc1)c1ccc2cncc(-c3ccc(Cl)cc3)c2n1` [Example 45, 8-(4-Chlorophenyl)-N-(pyridin-3-ylmethyl)-1,6-naphthyridine-2-carboxamide] registered an EC (150% of control) of 0.02 µM.

In turn, `NC(=O)c1ccc2cncc(-c3ccc(Cl)cc3Cl)c2n1` [Example 160, 8-(2,4-Dichlorophenyl)-1,6-naphthyridine-2-carboxamide] registered an EC (150% of control) of 0.1 µM.

Regarding `Cc1ccccc1-c1cncc2ccc(C(=O)NC(C)C(C)(C)O)nc12` (stereo not shown) [Example 176, N-(3-Hydroxy-3-methylbutan-2-yl)-8-o-tolyl-1,6-naphthyridine-2-carboxamide], the EC (150% of control) is 0.28 µM.

`CC(C)Cc1cncc2ccc(C(N)=O)nc12` [Example 136, 8-Isobutyl-1,6-naphthyridine-2-carboxamide] gave an EC (150% of control) of 0.04 µM.

`COc1ccccc1-c1cncc2ccc(C(=O)NCc3ccccc3)nc12` [Example 12, N-Benzyl-8-(2-methoxyphenyl)-1,6-naphthyridine-2-carboxamide] yielded an EC (150% of control) of 0.17 µM.

In the case of `CS(=O)(=O)c1cccc(-c2cncc3ccc(C(N)=O)nc23)c1` [Example 87, 8-(3-(Methylsulfonyl)phenyl)-1,6-naphthyridine-2-carboxamide], the EC (150% of control) was 0.79 µM.

Turning to `Cn1cc(NC(=O)c2ccc3cncc(-c4ccc(Cl)cc4)c3n2)cn1` [Example 55, 8-(4-Chlorophenyl)-N-(1-methyl-1H-pyrazol-4-yl)-1,6-naphthyridine-2-carboxamide], the EC (150% of control) is 0.25 µM.

With `O=C(NCc1ccncc1)c1ccc2cncc(-c3cccc(Cl)c3)c2n1` [Example 29, 8-(3-Chlorophenyl)-N-(pyridin-4-ylmethyl)-1,6-naphthyridine-2-carboxamide], the EC (150% of control) stood at 0.51 µM.

Regarding `CC(NC(=O)c1ccc2cncc(-c3ccccc3F)c2n1)c1ccc(S(C)(=O)=O)cc1` (stereo not shown) [Example 108, 8-(2-Fluorophenyl)-N-(1-(4-(methylsulfonyl)phenyl)ethyl)-1,6-naphthyridine-2-carboxamide], the EC (150% of control) amounted to 0.5 µM.

On to `CS(=O)(=O)NNC(=O)c1ccc2cncc(-c3ccc(Cl)cc3)c2n1` [Example 49, N′-(8-(4-Chlorophenyl)-1,6-naphthyridine-2-carbonyl)methanesulfonohydrazide], for which the EC (150% of control) came to 0.07 µM.

`CC(NC(=O)c1ccc2cncc(-c3ccccc3Cl)c2n1)C(C)(C)O` (stereo not shown) [Example 171, 8-(2-Chlorophenyl)-N-(3-hydroxy-3-methylbutan-2-yl)-1,6-naphthyridine-2-carboxamide]: the EC (150% of control) came to 0.12 µM.

Take `O=C(NCc1ccncc1)c1ccc2cncc(-c3ccc(Cl)cc3)c2n1` [Example 28, 8-(4-Chlorophenyl)-N-(pyridin-4-ylmethyl)-1,6-naphthyridine-2-carboxamide]: the EC (150% of control) was 0.1 µM.

Compound `O=C(NCc1ccncn1)c1ccc2cncc(-c3ccc(Cl)cc3)c2n1` [Example 96, 8-(4-Chlorophenyl)-N-(pyrimidin-4-ylmethyl)-1,6-naphthyridine-2-carboxamide] had an EC (150% of control) of 0.17 µM.

`CS(=O)(=O)c1ccc(CNC(=O)c2ccc3cncc(-c4cc(F)ccc4F)c3n2)cc1` [Example 116, 8-(2,5-Difluorophenyl)-N-(4-(methylsulfonyl)benzyl)-1,6-naphthyridine-2-carboxamide] gave an EC (150% of control) of 1.65 µM.

For the compound `O=C(NCC1CC1)c1ccc2cncc(-c3ccc(Cl)cc3)c2n1` [Example 67, 8-(4-Chlorophenyl)-N-(cyclopropylmethyl)-1,6-naphthyridine-2-carboxamide], the EC (150% of control) is 0.01 µM.

Compound `COCCNC(=O)c1ccc2cncc(Br)c2n1` [Example 1, 8-Bromo-N-(2-methoxyethyl)-1,6-naphthyridine-2-carboxamide] registered an EC (150% of control) of 1.2 µM.

On to `CC(C)(C)CNC(=O)c1ccc2cncc(-c3cccc(F)c3)c2n1` [Example 119, 8-(3-Fluorophenyl)-N-neopentyl-1,6-naphthyridine-2-carboxamide], for which the EC (150% of control) came out at 0.27 µM.

Compound `COCCNC(=O)c1ccc2cncc(-c3ccncc3)c2n1` [Example 18, N-(2-Methoxyethyl)-8-(pyridin-4-yl)-1,6-naphthyridine-2-carboxamide] had an EC (150% of control) of 0.31 µM.

In turn, `O=C(NCc1ccncc1)c1ccc2cncc(-c3cccnc3)c2n1` [Example 31, 8-(Pyridin-3-yl)-N-(pyridin-4-ylmethyl)-1,6-naphthyridine-2-carboxamide] yielded an EC (150% of control) of 0.54 µM.

For `O=C(NC1CCOC1)c1ccc2cncc(-c3ccc(Cl)cc3)c2n1` (stereo not shown) [Example 60, 8-(4-Chlorophenyl)-N-(tetrahydrofuran-3-yl)-1,6-naphthyridine-2-carboxamide], the EC (150% of control) came to 0.15 µM.

In turn, `COc1ccc(-c2cncc3ccc(C(=O)NCCCn4nc(C)cc4C)nc23)cc1` [Example 42, N-(3-(3,5-Dimethyl-1H-pyrazol-1-yl)propyl)-8-(4-methoxyphenyl)-1,6-naphthyridine-2-carboxamide] gave an EC (150% of control) of 0.25 µM.

Turning to `O=C(NCC(F)(F)F)c1ccc2cncc(-c3ccc(F)cc3)c2n1` [Example 124, 8-(4-Fluorophenyl)-N-(2,2,2-trifluoroethyl)-1,6-naphthyridine-2-carboxamide], the EC (150% of control) stood at 0.07 µM.

With `COCCNC(=O)c1ccc2cncc(-c3ccccc3OC)c2n1` [Example 5, N-(2-Methoxyethyl)-8-(2-methoxyphenyl)-1,6-naphthyridine-2-carboxamide], the EC (150% of control) turned out to be 0.26 µM.

Consider `NC(=O)c1ccc2cncc(-c3ccc(OCC(F)(F)F)cc3)c2n1` [Example 165, 8-(4-(2,2,2-Trifluoroethoxyl)phenyl)-1,6-naphthyridine-2-carboxamide], for which the EC (150% of control) came to 0.01 µM.

The compound `CS(=O)(=O)c1ccc(CNC(=O)c2ccc3cncc(-c4ccccc4F)c3n2)cc1` [Example 112, 8-(2-Fluorophenyl)-N-(4-(methylsulfonyl)benzyl)-1,6-naphthyridine-2-carboxamide] came in with an EC (150% of control) of 0.25 µM.

`COCCNC(=O)c1ccc2cncc(-c3ccc(Cl)cc3)c2n1` [Example 6, 8-(4-Chlorophenyl)-N-(2-methoxyethyl)-1,6-naphthyridine-2-carboxamide] registered an EC (150% of control) of 0.02 µM.

As for `CC(NC(=O)c1ccc2cncc(-c3ccc(Cl)nc3)c2n1)C(C)(C)O` (stereo not shown) [Example 174, 8-(6-Chloropyridin-3-yl)-N-(3-hydroxy-3-methylbutan-2-yl)-1,6-naphthyridine-2-carboxamide], the EC (150% of control) stood at 0.61 µM.

As for `NC(=O)c1ccc2cncc(-c3ccc(Cl)cc3)c2n1` [Example 44, 8-(4-Chlorophenyl)-1,6-naphthyridine-2-carboxamide], the EC (150% of control) worked out at 0.03 µM.

`CS(=O)(=O)CCNC(=O)c1ccc2cncc(-c3ccc(F)c(F)c3)c2n1` [Example 137, 8-(3,4-Difluorophenyl)-N-(2-(methylsulfonyl)ethyl)-1,6-naphthyridine-2-carboxamide] registered an EC (150% of control) of 0.35 µM.

`COc1ccc(-c2cncc3ccc(C(=O)NCCCc4ccccc4)nc23)cc1` [Example 25, 8-(4-Methoxyphenyl)-N-(3-phenylpropyl)-1,6-naphthyridine-2-carboxamide]: the EC (150% of control) is 0.67 µM.

`NC(=O)c1ccc2cncc(-c3cccc(OCC(F)(F)F)c3)c2n1` [Example 166, 8-(3-(2,2,2-Trifluoroethoxyl)phenyl)-1,6-naphthyridine-2-carboxamide] showed an EC (150% of control) of 0.06 µM.

`COCCNC(=O)c1ccc2cncc(-c3cccc(OC)c3)c2n1` [Example 3, N-(2-Methoxyethyl)-8-(3-methoxyphenyl)-1,6-naphthyridine-2-carboxamide] registered an EC (150% of control) of 0.26 µM.

Still in this test, the particulars now being: Homo sapiens, Neural stem cell, 96 h; Table 2, known compounds; concentration at which 150% activity of control (100%) is reached; ATP levels (CellTiterGlo) after 4 days incubation.
The compound `O=C(NCc1ccc(C(F)(F)F)nc1)c1ccc2cncc(-c3ccccc3)c2n1` [Example 196, 8-Phenyl-[1,6]naphthyridine-2-carboxylic acid (6-trifluoromethyl-pyridin-3-ylmethyl)-amide] registered an EC (150% of control) of 3.7 µM.

The compound `O=C(NC1CCN(Cc2ccccc2)CC1)c1ccc2cncc(-c3ccccc3)c2n1` [Example 193, 8-Phenyl-[1,6]naphthyridine-2-carboxylic acid (1-benzyl-piperidin-4-yl)-amide] returned an EC (150% of control) of 1.9 µM.

Regarding `O=C(NCCCn1ccnc1)c1ccc2cncc(-c3ccsc3)c2n1` [Example 197, 8-Thiophen-3-yl-[1,6]naphthyridine-2-carboxylic acid (3-imidazol-1-yl-propyl)-amide], the EC (150% of control) was 1.98 µM.

As for `O=C(c1ccc2cncc(-c3cc4ccccc4o3)c2n1)N1CCCCC1` [Example 205, (8-Benzofuran-2-yl-[1,6]naphthyridin-2-yl)-piperidin-1-yl-methanone], the EC (150% of control) stood at 3.5 µM.

The compound `COc1ccc(-c2cncc3ccc(C(=O)N4CCN(c5ccccn5)CC4)nc23)cc1` [Example 185, [8-(4-Methoxy-phenyl)-[1,6]naphthyridin-2-yl]-(4-pyridin-2-yl-piperazin-1-yl)-methanone] returned an EC (150% of control) of 0.8 µM.

For the compound `COc1ccccc1CNC(=O)c1ccc2cncc(-c3ccsc3)c2n1` [Example 202, 8-Thiophen-3-yl-[1,6]naphthyridine-2-carboxylic acid 2-methoxy-benzylamide], the EC (150% of control) amounted to 0.15 µM.

For the compound `COc1ccc(-c2cncc3ccc(C(=O)N4CCCCC4)nc23)cc1` [Example 183, [8-(4-Methoxy-phenyl)-[1,6]naphthyridin-2-yl]-piperidin-1-yl-methanone], the EC (150% of control) turned out to be 1.25 µM.

`COc1ccc(-c2cncc3ccc(C(=O)N4CCOCC4)nc23)cc1` [Example 182, [8-(4-Methoxy-phenyl)-[1,6]naphthyridin-2-yl]-morpholin-4-yl-methanone] showed an EC (150% of control) of 5.4 µM.
